Earlier results as cited in patent publication US7601870B2, “Substituted aniline derivatives” (priority 2004, dated 2009).

Tests used:
[1] = tested on: electrically induced seizures, seizures induced chemically by pentylenetetrazole, picrotoxin and NMDA, DBA/2 mouse; details: oral and intraperitoneal administration in rats and mice
[2] = tested on: amygdala kindling model of complex partial seizures; details: in vivo
[3] = tested on: seizures in epileptic patients; details: clinical trials
[4] = tested on: K(+) current in neuronal cells
[5] = tested on: animal models of neuropathic pain; details: in vivo
[6] = tested on: kainic acid-induced status epilepticus; details: rat
[7] = tested on: hippocampal kindling; details: rat
[8] = tested on: animal models of anxiety-like behaviour; details: in vivo
[9] = tested on: animal models of ethanol withdrawal syndrome; details: in vivo

CCOC(=O)Nc1ccc(NCc2ccc(F)cc2)cc1N [Retigabine, N-(2-amino-4-(4-fluorobenzylamino)-phenyl) carbamic acid ethyl ester]
anticonvulsant activity [1]: active | activity in amygdala kindling model [2]: active | incidence of seizures [3]: effectiveness in reducing the incidence of seizures | activation of K(+) current [4]: activate a K(+) current | effect in neuropathic pain models [5]: beneficial | limbic neurodegeneration and markers of apoptosis [6]: prevent limbic neurodegeneration and the expression of markers of apoptosis | progression of hippocampal kindling [7]: delay the progression of hippocampal kindling | activity in anxiety-like behaviour models [8]: active

NCC1(CC(=O)O)CCCCC1 [gabapentin]
effect in ethanol withdrawal syndrome models [9]: very effective
